Experimental data reported in patent publication US9221814B2, “Heterocyclic guanidine F1F0-atpase inhibitors and therapeutic uses thereof” (Lycera Corporation, priority 2012, dated 2015).
Read-outs that look alike come from different tables or passages of the source.

Columns and labels:
[1] = test system: Ramos cells; assay: Cytotoxicity in Ramos cells; format: cell-based; conditions: detection limit EC50=16 μM, read-out: Ramos Cell EC50
Protocol: (§1) Exemplary compounds described in above Examples were tested for activity against F1F0-ATPase by measuring the ability of the compounds to inhibit ATP synthesis. In addition, the compounds were assessed for cytotoxicity in Ramos cells. Inhibition of F1F0-ATPase activity in synthesizing ATP and cytotoxicity in Ramos cells were measured according to the procedures described in K. M. Johnson et al. Chemistry & Biology 2005, 12, 485-496.

[2] = biological target: T1, F1F0-ATPase (Bos taurus, UniProt P13621); assay: Inhibition of F1F0-ATPase activity in synthesizing ATP (ATP synthesis inhibition); format: biochemical; conditions: detection limit IC50=16 μM, read-out: ATP Syn IC50
T1 construct: from tissue
Protocol: as §1

SMILES | EC50 [1] [µM] | IC50 [2] [µM] | EC50 ([1]; Homo sapiens) [µM]
Cc1oncc1C(=O)/N=C(\Nc1cc(-c2cc(F)cc(Cl)c2)n[nH]1)NC1(C)CCCC1 [Compound A-98] | < 5 | < 5 | –
Cc1oncc1C(=O)N=C(NCC(C)C)Nc1cc(-c2cc(F)cc(Cl)c2)n[nH]1 [Compound A-99] | – | < 5 | 5 to 16
Cc1oncc1C(=O)/N=C(\Nc1cc(-c2cc(F)cc(Cl)c2)n[nH]1)NC(C)C [Compound A-100] | < 5 | < 5 | –
CCC(C)N/C(=N/C(=O)c1cnoc1C)Nc1cc(-c2cc(F)cc(Cl)c2)n[nH]1 (stereo not shown) [Compound A-101] | < 5 | < 5 | –
Cc1oncc1C(=O)/N=C(\Nc1cc(-c2cc(F)cc(Cl)c2)n[nH]1)NC1CCC1 [Compound A-102] | < 5 | < 5 | –
Cc1oncc1C(=O)/N=C(/NCCCOC(C)C)Nc1cc(-c2cc(F)cc(Cl)c2)[nH]n1 [Compound A-103] | > 16 | > 16 | –
CCOCCCN/C(=N/C(=O)c1cnoc1C)Nc1cc(-c2ccc(Cl)cc2)n[nH]1 [Compound A-104] | > 16 | > 16 | –
CCOCCCN/C(=N/C(=O)c1cnoc1C)Nc1cc(-c2ccc(F)cc2)n[nH]1 [Compound A-105] | > 16 | > 16 | –
CCOCCCN/C(=N/C(=O)c1cnoc1C)Nc1cc(-c2ccc(C)c(F)c2)n[nH]1 [Compound A-106] | > 16 | 5 to 16 | –
Cc1cc(N/C(=N\C(=O)c2cc(C)oc2C(F)(F)F)NC(C)(C)C)[nH]n1 [Compound A-107] | > 16 | > 16 | –
Cc1cc(N/C(=N\C(=O)c2cc(C)oc2C(F)(F)F)Nc2cc(F)cc(Cl)c2)n[nH]1 [Compound A-108] | 5 to 16 | < 5 | –
Cc1cc(N/C(=N\C(=O)c2cc(C)oc2C(F)(F)F)NCC(C)C)[nH]n1 [Compound A-109] | > 16 | 5 to 16 | –
Cc1cc(N/C(=N\C(=O)c2cc(C)oc2C(F)(F)F)NCC(C)(C)C)n[nH]1 [Compound A-110] | > 16 | 5 to 16 | –
CCC(C)N/C(=N/C(=O)c1cc(C)oc1C(F)(F)F)Nc1cc(C)n[nH]1 (stereo not shown) [Compound A-111] | > 16 | 5 to 16 | –
Cc1cc(N/C(=N\C(=O)c2cc(C)oc2C(F)(F)F)NC(C)C)n[nH]1 [Compound A-112] | > 16 | > 16 | –
COC[C@H](C)N/C(=N/C(=O)c1cc(C)oc1C(F)(F)F)Nc1cc(C)n[nH]1 [Compound A-113] | > 16 | > 16 | –
Cc1cc(C(=O)/N=C(\Nc2cc(-c3cc(F)cc(F)c3)[nH]n2)NC(C)(C)C)c(C(F)(F)F)o1 [Compound A-114] | 5 to 16 | 5 to 16 | –
Cc1cc(C(=O)/N=C(/Nc2cc(F)cc(Cl)c2)Nc2cc(-c3cc(F)cc(F)c3)[nH]n2)c(C(F)(F)F)o1 [Compound A-115] | 5 to 16 | < 5 | –
Cc1cc(C(=O)/N=C(/NCC(C)C)Nc2cc(-c3cc(F)cc(F)c3)[nH]n2)c(C(F)(F)F)o1 [Compound A-116] | < 5 | < 5 | –
Cc1cc(C(=O)/N=C(\Nc2cc(-c3cc(F)cc(F)c3)[nH]n2)NC(C)C)c(C(F)(F)F)o1 [Compound A-117] | 5 to 16 | < 5 | –
COC[C@H](C)N/C(=N/C(=O)c1cc(C)oc1C(F)(F)F)Nc1cc(-c2cc(F)cc(F)c2)n[nH]1 [Compound A-118] | 5 to 16 | < 5 | –
Cc1nc(C(=O)/N=C(\Nc2cc(-c3ccc(F)cc3)[nH]n2)NC(C)(C)C)c(C(F)(F)F)o1 [Compound A-119] | 5 to 16 | < 5 | –
Cc1nnsc1C(=O)/N=C(/NCC(C)C)Nc1cc(-c2ccc(F)cc2)[nH]n1 [Compound A-120] | > 16 | > 16 | –
CCOCCN/C(=N/C(=O)c1snnc1C)Nc1cc(-c2ccc(F)cc2)[nH]n1 [Compound A-121] | > 16 | > 16 | –
Cc1nnsc1C(=O)/N=C(\Nc1cc(-c2ccc(F)cc2)[nH]n1)NC1CCCC1 [Compound A-122] | > 16 | > 16 | –

SMILES | EC50 [1] [µM] | IC50 [2] [µM] | EC50 ([1]; Homo sapiens) [µM]
Cc1oncc1C(=O)/N=C(/NCC(C)C)Nc1cc(-c2ccc(F)cc2)[nH]n1 [Compound A-123] | > 16 | > 16 | –
Cc1oncc1C(=O)N=C(Nc1cc(-c2ccc(F)cc2)n[nH]1)NC1CCCC1 [Compound A-124] | – | > 16 | > 16
Cc1oncc1C(=O)/N=C(\Nc1cc(-c2ccc(F)cc2)[nH]n1)NC1CCC1 [Compound A-125] | > 16 | > 16 | –
CCOC(=O)NC1CCC(N/C(=N\C(=O)c2cc(C)oc2C(F)(F)F)NCc2ccc(F)cc2Cl)CC1 (stereo not shown) [Compound A-126] | – | < 5 | < 5
CCOC(=O)NC1CCC(N/C(=N\C(=O)c2cc(C)oc2C(F)(F)F)Nc2cc(F)cc(Cl)c2)CC1 (stereo not shown) [Compound A-127] | – | < 5 | < 5
COc1ccc(-c2cc(N/C(=N\C(=O)c3cn(C)nc3C(F)(F)F)NC(C)(C)C)n[nH]2)cc1F [Compound A-128] | < 5 | 5 to 16 | –
COc1ccc(-c2cc(N/C(=N\C(=O)c3cn(C)nc3C(F)(F)F)NC3CCCC3)n[nH]2)cc1F [Compound A-129] | < 5 | 5 to 16 | –
COc1ccc(-c2cc(NC(=NC(=O)c3cn(C)nc3C(F)(F)F)NCC(C)(C)C)[nH]n2)cc1F [Compound A-130] | – | < 5 | < 5
COc1ccc(-c2cc(N/C(=N\C(=O)c3cn(C)nc3C(F)(F)F)Nc3cc(F)cc(Cl)c3)n[nH]2)cc1F [Compound A-131] | > 16 | < 5 | –
COC[C@H](C)N/C(=N/C(=O)c1cn(C)nc1C(F)(F)F)Nc1cc(-c2ccc(OC)c(F)c2)n[nH]1 [Compound A-132] | 5 to 16 | 5 to 16 | –
COc1ccc(-c2cc(N/C(=N\C(=O)c3cn(C)nc3C(F)(F)F)NCC(C)C)n[nH]2)cc1F [Compound A-133] | < 5 | < 5 | –
Cn1cc(C(=O)/N=C(\Nc2cc(-c3ccc(O)c(F)c3)[nH]n2)NC2CCCC2)c(C(F)(F)F)n1 [Compound A-134] | > 16 | 5 to 16 | –
Cn1cc(C(=O)/N=C(/NCC(C)(C)C)Nc2cc(-c3ccc(O)c(F)c3)[nH]n2)c(C(F)(F)F)n1 [Compound A-135] | < 5 | 5 to 16 | –
Cn1cc(C(=O)/N=C(\Nc2cc(-c3ccc(O)cc3F)[nH]n2)NC(C)(C)C)c(C(F)(F)F)n1 [Compound A-136] | < 5 | < 5 | –
Cn1cc(C(=O)N=C(Nc2cc(-c3ccc(O)cc3F)n[nH]2)NC2CCCC2)c(C(F)(F)F)n1 [Compound A-137] | – | > 16 | > 16
Cn1cc(C(=O)/N=C(/NCC(C)(C)C)Nc2cc(-c3ccc(O)cc3F)[nH]n2)c(C(F)(F)F)n1 [Compound A-138] | > 16 | > 16 | –
Cn1cc(C(=O)/N=C(/Nc2cccc(F)c2)Nc2cc(-c3ccc(O)cc3F)[nH]n2)c(C(F)(F)F)n1 [Compound A-139] | < 5 | < 5 | –
COC[C@H](C)N/C(=N/C(=O)c1cn(C)nc1C(F)(F)F)Nc1cc(-c2ccc(O)cc2F)n[nH]1 [Compound A-140] | > 16 | > 16 | –
Cn1cc(C(=O)/N=C(\Nc2n[nH]c3cncc(F)c23)NC(C)(C)C)c(C(F)(F)F)n1 [Compound A-141] | 5 to 16 | 5 to 16 | –
COCC(C)NC(=NC(=O)c1cn(C)nc1C(F)(F)F)Nc1n[nH]c2cncc(F)c12 (stereo not shown) [Compound A-142] | – | > 16 | 5 to 16
CC(C)CNC(=NC(=O)c1cn(C)nc1C(F)(F)F)Nc1n[nH]c2cncc(F)c12 [Compound A-143] | – | > 16 | 5 to 16
Cn1cc(C(=O)/N=C(/NCC(C)(C)C)Nc2n[nH]c3cncc(F)c23)c(C(F)(F)F)n1 [Compound A-144] | > 16 | 5 to 16 | –
COc1ccc(F)c(-c2cc(N/C(=N\C(=O)c3cn(C)nc3C(F)(F)F)NC(C)(C)C)n[nH]2)c1 [Compound A-145] | 5 to 16 | 5 to 16 | –
COc1ccc(-c2cc(N/C(=N\C(=O)c3cn(C)nc3C(F)(F)F)NC(C)C)n[nH]2)cc1F [Compound A-146] | < 5 | 5 to 16 | –
COc1ccc(-c2cc(N/C(=N\C(=O)c3cn(C)nc3C(F)(F)F)Nc3ccc(F)cc3Cl)[nH]n2)cc1F [Compound A-147] | > 16 | < 5 | –
